In EP0367671B1, “Novel beta-D-phenylthioxylosides, their method of preparation and their use as pharmaceuticals” (FOURNIER INDUSTRIE ET SANTE, priority 1988, dated 1990) one finds inhibition in vivo data, which are given here for 11 molecules.

For this assay, the system named is venous thrombosis. Kind of assay: venous thrombosis protocol (venous stasis under hypercoagulation with activated factor X, Wessler technique; thrombus removed and weighed). Type of assay: in vivo. The settings on record: Rattus norvegicus, po; 12.5 mg/kg p.o., suspension in PEG 400; thrombosis induced 4 hours after treatment; unfasted male Wistar rats. The protocol:
A venous stasis is produced under hypercoagulation according to the technique described by WESSLER et al. (J. Applied Physiol. 1959, p. 943-946). As in the technique described by J. HAUPMAN et al. (Thrombosis and Haemostasis 43 (2) 1980, p. 118), the hypercoagulant used is a solution of activated factor X (Xa) supplied by the company Flow Laboratories (71 Knat per 12.5 ml of physiological serum).
The study is performed on unfasted male Wistar rats weighing 250 to 280 g and divided up into groups of 10 animals each. The test products are administered orally as a suspension in PEG 400. A thrombosis is induced 4 hours after this treatment and the thrombus formed is removed and weighed.
The results obtained at a dose of 12.5 mg/kg p.o. have been collated in Table I. The results obtained with the known products of the above-mentioned prior art have also been collated in this Table.
Consider `N#Cc1ccc(S[C@@H]2SC[C@@H](O)[C@H](O)[C@H]2O)c(C(=O)c2ccccc2)c1` [Example 1, (2-benzoyl-4-cyanophenyl)-1,5-dithio-β-D-xylopyranoside], for which the inhibition in vivo (as a rule, the drop in the measured response relative to a control, in per cent) at 12.5 mg/kg amounted to 69%. The molecule `CC(=O)O[C@@H]1[C@@H](OC(C)=O)[C@H](Sc2ccc(C#N)cc2C(=O)c2ccccc2)SC[C@H]1OC(C)=O` [Example 1a, (2-benzoyl-4-cyanophenyl)-2,3,4-tri-O-acetyl-1,5-dithio-β-D-xylopyranoside] registered an inhibition in vivo at 12.5 mg/kg of 43.8%. As to `N#Cc1ccc(S[C@@H]2SC[C@@H](O)[C@H](O)[C@H]2O)c(C(O)c2ccccc2)c1` (stereo partly drawn) [Example 2, (4-cyano-2-phenylhydroxymethylphenyl)-1,5-dithio-β-D-xylopyranoside], the inhibition in vivo at 12.5 mg/kg came out at 61%. The molecule `O=C(c1ccccc1)c1ccccc1S[C@@H]1SC[C@@H](O)[C@H](O)[C@H]1O` [Example 3, (2-benzoylphenyl)-1,5-dithio-β-D-xylopyranoside] had an inhibition in vivo at 12.5 mg/kg of 4%.

For `N#Cc1ccc(C(=O)c2ccccc2S[C@@H]2SC[C@@H](O)[C@H](O)[C@H]2O)cc1` [Example 4, (2-(4-cyanobenzoyl)phenyl)-1,5-dithio-β-D-xylopyranoside], 12.5 mg/kg produced 88% inhibition in vivo.

As to `N#Cc1ccc(C(O)c2ccccc2S[C@@H]2SC[C@@H](O)[C@H](O)[C@H]2O)cc1` (stereo partly drawn) [Example 5, (2-(4-cyanophenylhydroxymethyl)phenyl)-1,5-dithio-β-D-xylopyranoside], 12.5 mg/kg produced 62% inhibition in vivo. For the molecule `N#Cc1cccc(C(=O)c2ccccc2S[C@@H]2SC[C@@H](O)[C@H](O)[C@H]2O)c1` [Example 6, (2-(3-cyanobenzoyl)phenyl)-1,5-dithio-β-D-xylopyranoside], 12.5 mg/kg produced 59% inhibition in vivo. In the case of `N#Cc1cccc(C(O)c2ccccc2S[C@@H]2SC[C@@H](O)[C@H](O)[C@H]2O)c1` (stereo partly drawn) [Example 7, (2-(3-cyanophenylhydroxymethyl)phenyl)-1,5-dithio-β-D-xylopyranoside] it was 54%; in that of `N#Cc1ccccc1C(=O)c1ccccc1S[C@@H]1SC[C@@H](O)[C@H](O)[C@H]1O` [Example 8, (2-(2-cyanobenzoyl)phenyl)-1,5-dithio-β-D-xylopyranoside], 57%.

Molecule `N#Cc1ccc(C(=O)c2cc(C(F)(F)F)ccc2S[C@@H]2SC[C@@H](O)[C@H](O)[C@H]2O)cc1` [Example 9, (2-(4-cyanobenzoyl)-4-trifluoromethylphenyl)-1,5-dithio-β-D-xylopyranoside] had an inhibition in vivo at 12.5 mg/kg of 56.5%.

In turn, `N#Cc1ccc(C(O)c2cc(C(F)(F)F)ccc2S[C@@H]2SC[C@@H](O)[C@H](O)[C@H]2O)cc1` (stereo partly drawn) [Example 10, (2-(4-cyanophenylhydroxymethyl)-4-trifluoromethylphenyl)-1,5-dithio-β-D-xylopyranoside] returned an inhibition in vivo at 12.5 mg/kg of 61%.
